Consider 1 compound from US7737182B2, “Pharmaceuticals for xerosis” (Taisho Pharmaceutical Co., Ltd., priority 2001, dated 2010).

The test system of assay [1] is NC/Nga mice manifesting atopic dermatitis. Put plainly: Spontaneous itch-evoked scratching behavior of NC mice (Test Example 1). The assay is classed as in vivo. As to the method: About 20-week old NC/Nga mice each weighing about 30 g and manifesting atopic dermatitis were purchased from SLC and subjected to the following experiment. A magnet was buried in both hind paws of each mouse and by detecting its magnetism, the movement of the paws was measured with an itch measuring system (product of Neuroscience; when the mouse makes an action, the magnets move accordingly and a current flows through the coil; the moving magnets cause a change in the current, which is detected, measured and analyzed). Among the scratching actions, those lasting 1.5 seconds or longer were considered itch-evoked and their number was counted continuously. […] The subsequent 24-hr itch-evoked scratching behavior was measured and the number of itch-evoked scratchings after drug administration was compared with the initial count. The experimental data was processed to calculate the percent itch suppression on the basis of the total 24-hr itch-evoked scratching counts before and after drug application. For significance testing, the itch-evoked scratching counts that were obtained before and after drug application from individual animals in each group treated with a specific concentration of drug were processed by a paired t-test. Percent itch suppression (%)=(itch-evoked scratching count before drug application−itch-evoked scratching count after drug application)×100/itch-evoked scratching count before drug application (Results)

Assay [2] concerns guinea pig platelets. Put plainly: Suppression of ADP-induced aggregation of guinea pig platelets. In kind it is cell-based. The note with it: Cavia porcellus; guinea pig platelet-rich plasma, ADP (3 μM). As to the method: Ten-week-old Hartley male guinea pigs were anesthetized with pentobarbital (30 mg/kg, i.p. injected) and a total of 20 mL of blood was sampled into a syringe containing 2.0 mL of 3.8% sodium citrate. The blood was immediately centrifuged at 900 rpm for 10 minutes at 20° C. to recover the supernatant PRP. By further centrifugation at 3000 rpm for 10 minutes at 20° C., the supernatant PPP was recovered. The platelet count of PRP was diluted with PPP to 30×10^4 platelets/μL for subsequent use.
For platelet aggregation measurement, a platelet aggregation measuring instrument (PAM-8C) was employed. To 274 μL of PRP, 1 μL of a 0.287-95.7 nM test drug solution in ethanol was added and the mixture was incubated at 37° C. for 3 minutes with stirring at 1000 rpm. After the incubation, 25 μL of ADP (3 μM) was added to induce platelet aggregation and a maximum percent aggregation for 5 minutes was measured.
The percent suppression of aggregation by each test drug was calculated from the maximum percent aggregation by the test drug as relative to the maximum percent aggregation by ethanol instead of the test drug solution and IC50 values were determined from the constructed dose-response curve.

Assay [3] has as its target T1, prostaglandin D receptor (Homo sapiens, UniProt Q13258).
T1 construct: separate the supernatant (PRP, or platelet-rich plasma); endogenous in cells; host or cells: human platelets (platelet-rich plasma from healthy male donors)
T1 sequence (Q13258 1-359): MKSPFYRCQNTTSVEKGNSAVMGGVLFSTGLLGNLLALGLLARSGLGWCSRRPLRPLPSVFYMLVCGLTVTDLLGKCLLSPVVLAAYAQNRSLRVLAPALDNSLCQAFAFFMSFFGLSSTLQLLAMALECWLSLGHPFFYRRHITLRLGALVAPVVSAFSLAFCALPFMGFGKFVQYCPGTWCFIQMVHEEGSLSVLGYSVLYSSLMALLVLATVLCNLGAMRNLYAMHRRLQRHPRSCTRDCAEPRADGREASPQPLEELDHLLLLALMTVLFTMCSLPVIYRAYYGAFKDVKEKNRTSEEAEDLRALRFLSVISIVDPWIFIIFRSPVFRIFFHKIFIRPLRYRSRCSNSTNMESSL
In words: Antagonism by BW A868C of the suppression of ADP-induced human platelet aggregation. The assay is classed as cell-based. The conditions noted are these: final concentration 95.7 nmol/L, human PRP, ADP 3 μmol/L. As to the method:
The prostaglandin D receptor selective antagonist used in the test was ((+/−)-3-benzyl-5-(6-carboxyhexyl)-1-(2-cyclohexyl-2-hydroxyethylamino)-hydantoin) (hereunder designated BW A868C) (Sigma-Aldrich Japan K.K.)
BW A868C was diluted with ethanol to final concentrations of 0.03 μmol/L, 0.1 μmol/L, 0.3 μmol/L, 1 μmol/L, 3 μmol/L and 10 μmol/L.
Compound No. 7 and PGD2 were diluted with ethanol to 287 nmol/L and 300 nmol/L, respectively, for subsequent use.
Blood was taken from the cubital veins of human healthy males and sampled into a tube containing 3.13% sodium citrate. The blood sample was centrifuged at 1,000 rpm for 10 minutes at 20° C. to separate the supernatant (PRP, or platelet-rich plasma) and the residue was further centrifuged at 3,000 rpm for 10 minutes at 20° C. to separate the supernatant (PPP, or platelet-poor plasma). The platelet count of PRP was appropriately diluted with PPP to 30×10^4 platelets/μL for subsequent use.
Platelet aggregation was measured with a platelet aggregation measuring instrument (PAM-8C; MC MEDICAL Co., LTD.) by the Born method (Nature, vol. 194, p. 927, 1962). A portion (273 μL) of PRP (for the BW A868C groups, 1 μL of BW A868C was added at varying concentrations) was preincubated at 37° C. for 3 minutes with stirring at 1,000 rpm. After the preincubation, 1 μL of ethanol or a test substance (compound No. 7: final concentration at 95.7 nmol/L; PGD2: final concentration at 1000 nmol/L) was added and the mixture was incubated at 37° C. for 3 minutes with stirring at 1000 rpm. After the incubation, 25 μL of ADP (final concentration at 3 μmol/L) was added to induce platelet aggregation and a maximum percent aggregation for 5 minutes was measured.

Assay [4] deals with T2, thromboxane (TP) receptor (Homo sapiens, UniProt P21731).
T2 construct: endogenous in cells; host or cells: human washed platelets
T2 sequence (P21731 1-343): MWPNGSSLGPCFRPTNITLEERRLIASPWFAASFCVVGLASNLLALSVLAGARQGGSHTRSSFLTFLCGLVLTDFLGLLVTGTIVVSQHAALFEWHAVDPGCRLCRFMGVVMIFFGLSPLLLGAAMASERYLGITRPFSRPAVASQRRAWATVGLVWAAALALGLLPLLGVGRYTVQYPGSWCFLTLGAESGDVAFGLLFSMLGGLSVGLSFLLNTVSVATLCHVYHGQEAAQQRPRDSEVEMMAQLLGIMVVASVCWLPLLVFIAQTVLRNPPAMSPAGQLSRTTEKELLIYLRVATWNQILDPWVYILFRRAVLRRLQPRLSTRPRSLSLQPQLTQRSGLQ
Put plainly: Human TP antagonistic action: [3H]SQ29548 binding to human washed platelets. How it is done:
(C) The effect of the active ingredient of the present invention (compound No. 7) on a thromboxane (TP) receptor was measured as compared with the thromboxane agonist U44069 as a positive control drug.
The antagonistic action of the test drug on the [^3H]SQ29548 binding to human washed platelets was investigated on the basis of a documented method (J. Pharmacol. Exp. Ther., vol. 245, pp. 786-792, 1988).

The IC50 is the concentration that gives 50% inhibition. A higher IC50 goes with weaker potency in that assay. By inhibition is commonly meant the share of the control response that was lost under treatment. Read a low inhibition as a weak effect. Turning to `O=C(O)CSCCCC[C@@H]1[C@@H](C#C[C@@H](O)C2CCCCC2)[C@H](O)C[C@H]1Cl` [Compound No. 7], in assay [1] (concentration 0.000001% in 100% ethanol, 0.2 ml/mouse on dorsal skin, 24-hr scratching counts before vs after), the “Inhibition rate (%) (percent itch suppression)” value came out at 43.26%. Besides, the “Efficacy (significance, paired t-test)” value in assay [1] (concentration 0.000001%, scratching counts before vs after application) is recorded as “** (**: P < 0.01)”. In assay [2], this compound came in with a half-maximal inhibitory concentration (IC50) of 6.2 ± 2.3 nM. Besides, in assay [3], the “platelet aggregation suppressing action compared with control group (ethanol)” value is listed as “significant platelet aggregation suppressing action”. In assay [4] (1 μM), this compound showed an inhibition at 1 µM of 7%. The same compound displayed an inhibition at 10 µM in assay [4] (concentration of 10 μM) of 28%.
